Laboratory results taken from US11185077B2, “Attractants for rodents” (priority 2016, dated 2021).

Legend:
[1] = tested on: house mice, Mus musculus; assay: Laboratory T-tube bioassay: behavioral responses of mice (first choice, time spent); assay type: in vivo; conditions: male mice
Text: A laboratory experimental apparatus was constructed to test the behavioral responses of mice to the compositions described herein. The experimental design is depicted in FIG. 4 and includes three clear Plexiglas chambers: release chamber (1: 40 cm×20 cm×30 cm for placement of a mouse at the onset of a bioassay), and response chambers (3a and 3b: each 60 cm×30 cm×40 cm) interconnected by a Pyrex glass T-tube (2; stem: 65 cm long, side arms: 45 cm long, all 10 cm in diameter). Each response chamber housed a test stimulus in a Petri dish (4a, 4b; 3 cm diam.). For each replicate, a single mouse was deprived of food, but not water, for 4-6 h before being placed into chamber 1, which was illuminated by dim red light to facilitate observations of the mouse's position. The mouse was allowed to enter the stem of the T-tube (2) on its own accord in response to test stimuli, which were randomly assigned to response chamber 3a or 3b.
Both response chambers were fitted with a Petri dish (4a, 4b) containing a Whatman #1 filter paper disk (25 mm diam.) treated with a randomly assigned treatment stimulus or control stimulus. For each bioassay, a single mouse was tested and the following data were recorded: (1) the treatment or control chamber the mouse entered first with all four paws (“first-choice data”); and (2) the position of the mouse at each of 30 30-sec intervals after its first entry into the T-tube. Position data were then used to calculate the proportion of time a mouse spent in the treatment or control chamber (“time-spent data”).
Following each replicate, the chambers and T-tube were cleaned with a Percept® disinfectant detergent (Virox Technologies Inc. Mississaugua ON L5N 5M4, Canada) and wiped with 70% ethanol.
First-choice data and the time spent in a trap box quadrant were analyzed using a χ^2 test with Yates' correction for continuity (α=0.05) and the Student's t-test (α=0.05), respectively.
In Experiment 5, the laboratory experimental design of FIG. 4 was used to evaluate the responses of female mice to synthetic androstenone. For Experiment 5, the treatment stimulus consisted of filter paper treated with 4 μg of synthetic androstenone (see Experiments 1 and 2), and the control stimulus consisted of filter paper treated with the 50 μl of ether without androstenone.
In Experiment 6, the laboratory experimental design of FIG. 4 was used to evaluate the responses of male mice to blends of synthetic progesterone and estrogen. For Experiment 6, the treatment stimulus consisted of filter paper treated with a 4-μg blend of the synthetic hormones progesterone and estrogen formulated in 50 μl of ether at a ratio of 100:1 and a control stimulus which consisted of filter paper treated with 50 μl of ether.
In Experiments 9 to 11, the laboratory experimental design of FIG. 4 was used to evaluate the responses of male mice to synthetic progesterone and estrogen. For the Experiments, the treatment stimulus consisted of filter paper treated with a blend of the synthetic progesterone (50 ng) and estrogen (25 ng) (hereinafter “synthetic hormone blend”) (Experiment 9), progesterone alone (75 ng) (Experiment 10) or estrogen alone (75 ng) (Experiment 11) formulated in 50 μl ether. The control stimulus consisted of filter paper treated with 50 μl of ether for each of Experiments 9 to 11.
Experiment 12 used the laboratory experimental apparatus of FIG. 4 to test choices of female mice between filter paper treated with 75 ng of synthetic testosterone (the treatment stimulus) formulated in 50 μl of ether and control filter paper treated with 50 μl of ether. Experiment 13 was identical to Experiment 12 except that the treatment stimulus consisted of filter paper treated with 75 ng of synthetic androstenone.

[2] = tested on: wild house mice, Mus musculus; assay: Field experiments with paired trap boxes: trap captures of wild mice; assay type: in vivo
[3] = Experiment 11, estrogen alone (75 ng)
[4] = Experiment 10, progesterone alone (75 ng)
[5] = Experiment 22, 750 ng of progesterone

Compound | first entry into baited chamber vs control chamber [1, 3] | responsiveness of male mice compared with progesterone [1, 3] | time spent in treatment chamber vs control chamber [1, 3] | captures of wild mice vs control traps ([2]; Experiment 23, 750 ng of estradiol (estrogen)) | first entry into treated chamber vs control chamber [1, 4] | responses of male mice compared with the blend [1, 4] | time spent in treated chamber vs control chamber [1, 4] | captures of adult male mice vs control traps [2, 5] | captures of juvenile male mice vs control traps [2, 5]
C[C@]12CC[C@@H]3c4ccc(O)cc4CC[C@H]3[C@@H]1CC[C@@H]2O [estrogen, (8R,9S,13S,14S,17S)-13-methyl-6,7,8,9,11,12,14,15,16,17-decahydrocyclopenta[a]phenanthrene-3,17-diol] | significantly more often | more responsive to estrogen than to progesterone | significantly more time | as ineffective as control traps | – | – | – | – | –
CC(=O)[C@H]1CC[C@H]2[C@@H]3CCC4=CC(=O)CC[C@]4(C)[C@H]3CC[C@]12C [progesterone] | – | – | – | – | did not significantly choose to first enter | less pronounced | significantly more time | significantly more | significantly more
